Holding throughout (assay type): functional
The subject of assay [1] is Athelia rolfsii. As to the kind of experiment: Fungitoxic activity against Athelia rolfsii assessed as mycelial growth inhibition at 100 ppm after 3 days. The settings on record: Agroathelia rolfsii, 72 h; read-out: GI.
Assay [2] concerns Athelia rolfsii. As to the kind of experiment: Fungitoxic activity against Athelia rolfsii assessed as mycelial growth inhibition at 10 ppm after 3 days. The settings on record: Agroathelia rolfsii, 72 h; read-out: GI.
In assay [3] the test system is Pythium. As to the kind of experiment: Fungitoxic activity against Pythium sp. assessed as mycelial growth inhibition at 100 ppm after 3 days. The settings on record: 72 h, read-out: GI.
For assay [4], the system named is Pythium. As to the kind of experiment: Fungitoxic activity against Pythium sp. assessed as mycelial growth inhibition at 10 ppm after 3 days. The settings on record: 72 h, read-out: GI.

Molecules are shown by their SMILES.

As for `CCOC(=O)[C@H](Cc1ccccc1)NC(=O)/C=C/c1ccccc1`, the inhibition of growth at 100 ppm in assay [1] is 62%; in assay [3], 26%. Further, in assay [2], the inhibition of growth at 10 ppm worked out at 27%.
Regarding `CCOC(=O)[C@H](C)NC(=O)/C=C/c1ccc(C(C)C)cc1`, the inhibition of growth at 100 ppm in assay [1] is 60%; in assay [3], 63%. The inhibition of growth at 10 ppm in assay [2] is 27%; in assay [4] it was 0%.
Consider `CCCOC(=O)[C@H](C)NC(=O)/C=C/c1ccc(C(C)C)cc1`, for which the results for the inhibition of growth at 100 ppm in assay [1] and in assay [3] were 53% and 52%, respectively. In addition, the inhibition of growth at 10 ppm in assay [2] was 20%; in assay [4], 4%.
On the same counts, the results for `CCCOC(=O)CNC(=O)/C=C/c1ccc(C(C)C)cc1` are 74%, 63%, 23% and 24%.
With `CC(C)OC(=O)CNC(=O)/C=C/c1ccc(C(C)C)cc1`, the values for the inhibition of growth at 100 ppm in assay [1] and in assay [3] were 79% and 70%, respectively. The inhibition of growth at 10 ppm was found to be 37% in assay [2] and 11% in assay [4].
For the compound `COC(=O)[C@@H](NC(=O)/C=C/c1ccc(C(C)C)cc1)C(C)C`, the inhibition of growth at 100 ppm in assay [1] stood at 63%; in assay [3] it was 74%. Besides, the results for the inhibition of growth at 10 ppm in assay [2] and in assay [4] were 23% and 14%, respectively.
On the same counts, the results for `CCOC(=O)[C@@H](NC(=O)/C=C/c1ccc(C(C)C)cc1)C(C)C` are 51%, 67%, 27% and 10%.
Consider `COC(=O)[C@H](CC(C)C)NC(=O)/C=C/c1ccc(C(C)C)cc1`, for which the inhibition of growth at 100 ppm in assay [1] came to 35%; in assay [3], 60%. The inhibition of growth at 10 ppm in assay [4] was 6%.
As to `CC(C)C[C@H](NC(=O)/C=C/c1ccc(C(C)C)cc1)C(=O)OC(C)C`, the inhibition of growth at 100 ppm in assay [1] came out at 56%; in assay [3], 53%. Also, the results for the inhibition of growth at 10 ppm in assay [2] and in assay [4] were 35% and 25%, respectively.
On the same counts, the results for `CC[C@H](C)[C@H](NC(=O)/C=C/c1ccc(C(C)C)cc1)C(=O)OC` are 55%, 65%, 41% and 26%.
`CCOC(=O)[C@@H](NC(=O)/C=C/c1ccc(Cl)cc1Cl)C(C)C`: the inhibition of growth at 100 ppm worked out at 47% in assay [1] and 68% in assay [3]. The inhibition of growth at 10 ppm in assay [4] turned out to be 19%.
Take `COC(=O)[C@H](CC(C)C)NC(=O)/C=C/c1ccc(Cl)cc1Cl`: the inhibition of growth at 100 ppm in assay [1] stood at 42%; in assay [3], 55%. The inhibition of growth at 10 ppm in assay [4] was found to be 12%.
On the same counts, the results for `CC[C@H](C)[C@H](NC(=O)/C=C/c1ccc(Cl)cc1Cl)C(=O)OC` are 48%, 59% and 18%.
For the compound `CCOC(=O)[C@@H](NC(=O)/C=C/c1ccc(Cl)cc1Cl)[C@@H](C)CC`, the inhibition of growth at 100 ppm in assay [1] turned out to be 47%; in assay [3], 52%. In assay [4], the inhibition of growth at 10 ppm worked out at 20%.
Consider `CCOC(=O)[C@@H](NC(=O)/C=C/c1ccc(C(C)C)cc1)[C@@H](C)CC`, for which the inhibition of growth at 100 ppm in assay [1] is 45%; in assay [3] it was 57%. The inhibition of growth at 10 ppm in assay [4] turned out to be 23%.
Regarding `COC(=O)[C@H](Cc1ccccc1)NC(=O)/C=C/c1ccc(C(C)C)cc1`, the inhibition of growth at 100 ppm is 52% in assay [1] and 57% in assay [3]. For the same compound, the results for the inhibition of growth at 10 ppm in assay [2] and in assay [4] were 28% and 8%, respectively.
Consider `CCCOC(=O)CNC(=O)/C=C/c1ccc(Cl)cc1`, for which the results for the inhibition of growth at 100 ppm in assay [1] and in assay [3] were 56% and 48%, respectively. Further, the inhibition of growth at 10 ppm in assay [2] is 35%.
On to `CC(C)OC(=O)CNC(=O)/C=C/c1ccc(Cl)cc1`, for which the results for the inhibition of growth at 100 ppm in assay [1] and in assay [3] were 50% and 57%, respectively. Also, the results for the inhibition of growth at 10 ppm in assay [2] and in assay [4] were 41% and 0%, respectively.
Regarding `COC(=O)[C@@H](NC(=O)/C=C/c1ccc(Cl)cc1)C(C)C`, the results for the inhibition of growth at 100 ppm in assay [1] and in assay [3] were 53% and 52%, respectively. Besides, the inhibition of growth at 10 ppm in assay [2] was 20%; in assay [4] it was 0%.
Regarding `CCOC(=O)[C@H](CC(C)C)NC(=O)/C=C/c1ccc(Cl)cc1`, the inhibition of growth at 100 ppm in assay [1] worked out at 53%; in assay [3], 22%. Moreover, the inhibition of growth at 10 ppm in assay [2] stood at 16%.
On the same counts, the results for `CCCOC(=O)[C@H](CC(C)C)NC(=O)/C=C/c1ccc(Cl)cc1` are 56%, 38% and 25%.
Take `CC(C)C[C@H](NC(=O)/C=C/c1ccc(Cl)cc1)C(=O)OC(C)C`: the figures for the inhibition of growth at 100 ppm in assay [1] and in assay [3] were 89% and 70%, respectively. The inhibition of growth at 10 ppm came to 32% in assay [2] and 7% in assay [4].
In the same order, the values of `CC[C@H](C)[C@H](NC(=O)/C=C/c1ccc(Cl)cc1)C(=O)OC` are 65%, 51%, 20% and 0%.
Turning to `CCOC(=O)[C@@H](NC(=O)/C=C/c1ccc(Cl)cc1)[C@@H](C)CC`, the values for the inhibition of growth at 100 ppm in assay [1] and in assay [3] were 50% and 58%, respectively. For the same compound, the inhibition of growth at 10 ppm turned out to be 42% in assay [2] and 0% in assay [4].
On the same counts, the results for `CCOC(=O)[C@H](C)NC(=O)/C=C/c1ccc(Cl)cc1Cl` are 52%, 55%, 12% and 0%.
On the same counts, the results for `CCCOC(=O)[C@H](C)NC(=O)/C=C/c1ccc(Cl)cc1Cl` are 51%, 61%, 14% and 0%.
In the same order, the values of `CC(C)OC(=O)CNC(=O)/C=C/c1ccc(Cl)cc1Cl` are 94%, 70%, 38% and 9%.
Consider `COC(=O)[C@@H](NC(=O)/C=C/c1ccc(Cl)cc1Cl)C(C)C`, for which the inhibition of growth at 100 ppm was found to be 63% in assay [1] and 67% in assay [3]. In addition, the inhibition of growth at 10 ppm in assay [2] worked out at 24%; in assay [4], 10%.
For the compound `COC(=O)[C@H](C)NC(=O)/C=C/c1ccccc1`, the figures for the inhibition of growth at 100 ppm in assay [1] and in assay [3] were 25% and 13%, respectively.
Take `CCOC(=O)[C@H](C)NC(=O)/C=C/c1ccccc1`: the inhibition of growth at 100 ppm turned out to be 14% in assay [1] and 21% in assay [3].
For `CCCOC(=O)[C@H](C)NC(=O)/C=C/c1ccccc1`, the inhibition of growth at 100 ppm in assay [1] worked out at 48%; in assay [3], 33%.
In the same order, the values of `COC(=O)[C@@H](NC(=O)/C=C/c1ccccc1)C(C)C` are 29% and 33%.
On the same counts, the results for `CCOC(=O)[C@@H](NC(=O)/C=C/c1ccccc1)C(C)C` are 41% and 41%.
On to `CC(C)OP(=O)(OC(C)C)SCc1ccccc1` [IPROBENFOS], for which the inhibition of growth at 100 ppm was 100% in assay [1] and 89% in assay [3]. Also, the inhibition of growth at 10 ppm in assay [2] was found to be 69%; in assay [4] it was 42%.
For `CC(C)OC(=O)CNC(=O)/C=C/c1ccccc1` [ISOPROPYL 2-CINNAMAMIDOACETATE], the inhibition of growth at 100 ppm came to 61% in assay [1] and 42% in assay [3]. For the same compound, the inhibition of growth at 10 ppm in assay [2] was 15%.
In the same order, the values of `CCCOC(=O)CNC(=O)/C=C/c1ccccc1` [PROPYL 2-CINNAMAMIDOACETATE] are 53%, 47% and 26%.
`CCCOC/C(=N\c1ccc(Cl)cc1C(F)(F)F)n1ccnc1` [TRIFLUMIZOLE]: the inhibition of growth at 100 ppm in assay [1] was determined as 100%; in assay [3], 94%. Also, the inhibition of growth at 10 ppm in assay [2] worked out at 64%; in assay [4], 71%.

For the origin of these results see ChEMBL document CHEMBL3046900, “Synthesis and Fungitoxic Activity of N-Cinnamoyl--Amino Acid Esters” (2000).
